Data on 28 molecules can be found in ChEMBL document CHEMBL4732098, “Alkylated monoterpene indole alkaloid derivatives as potent P-glycoprotein inhibitors in resistant cancer cells” (Eur J Med Chem, 2021).

Structures are written as SMILES. pIC50: −log10 of the molar value. Where only a bound is given, the exact number is not on record here.

In assay [1] the test system is L5178Y. The assay can be described thus: Cytotoxicity against mouse L5178Y cells assessed as reduction in cell viability incubated for 24 hrs by MTT assay. In kind it is cell-based. (In general: Tetrazolium dyes change colour on reduction, which living cells bring about.)
For assay [2], the system named is L5178Y. The assay can be described thus: Cytotoxicity against mouse L5178Y cells transfected with human ABCB1 assessed as reduction in cell viability incubated for 24 hrs by MTT assay. It counts as cell-based.
Assay [3] deals with COLO 205. The assay can be described thus: Cytotoxicity against human COLO 205 cells assessed as reduction in cell viability incubated for 24 hrs by MTT assay. It counts as cell-based. As to conditions: COLO 205, 24 h.
The test system of assay [4] is L5178Y. The assay can be described thus: Synergistic cytotoxicity against mouse L5178Y cells transfected with human ABCB1 assessed as combination index measured after 72 hrs in presence doxorubicin by MTT assay based Chou-Talalay method. It counts as functional.
Assay [5] relates to COLO 320. The assay can be described thus: Cytotoxicity against human COLO 320 cells assessed as reduction in cell viability incubated for 24 hrs by MTT assay. In kind it is cell-based. As to conditions: COLO 320, 24 h.
The test system of assay [6] is COLO 320. The assay can be described thus: Synergistic cytotoxicity against human resistant COLO 320 cells assessed as combination index measured after 72 hrs in presence doxorubicin by MTT assay based Chou-Talalay method. In kind it is functional. Conditions: dose 2 µM.

One may read the pIC50 as the IC50 on a negative log10 scale, so that one unit is a factor of ten. Turning to `CC[C@H]1CN(C)[C@H]2Cc3c(n(CC)c4ccccc34)C(=O)C[C@H]1C2C(=O)OC` (some centres undefined), the pIC50 in assay [1] is 4.18; in assay [2], 4.32; in assay [3], below 4.00; in assay [5], below 4.00. The CI in assay [4] is below 1.

For `CC[C@@H]1CN(C)[C@H]2Cc3c(n(CCc4ccc(Br)cc4)c4ccccc34)C(=O)C[C@H]1C2C(=O)OC` (some centres undefined), the pIC50 was 4.15 in assay [1], 4.23 in assay [2], below 4.00 in assay [3] and below 4.00 in assay [5]. Also, the CI in assay [4] was below 1.

For the molecule `CC[C@H]1CN(C)[C@H]2Cc3c(n(Cc4ccc(Br)cc4)c4ccccc34)C(=O)C[C@H]1C2C(=O)OC` (some centres undefined), the pIC50 is 4.46 in assay [1], 4.41 in assay [2], 4.55 in assay [3] and 4.61 in assay [5]. For the same molecule, the CI in assay [4] was below 1.

Turning to `CC[C@@H]1CN(C)[C@H]2Cc3c(n(Cc4ccc([N+](=O)[O-])cc4)c4ccccc34)C(=O)C[C@H]1C2C(=O)OC` (some centres undefined), the pIC50 was 4.20 in assay [1], 4.09 in assay [2], below 4.00 in assay [3] and 4.06 in assay [5].

Turning to `C=CCn1c2c(c3ccccc31)C[C@H]1C(C(=O)OC)[C@H](CC2=O)[C@H](CC)CN1C` (some centres undefined), the pIC50 in assay [1] is 4.19; in assay [2], 4.01; in assay [3], below 4.00; in assay [5], below 4.00.

Take `CC[C@@H]1CN(C)[C@H]2Cc3c(n(CCc4ccc(OC)cc4)c4ccccc34)C(=O)C[C@H]1C2C(=O)OC` (some centres undefined): the pIC50 is 4.59 in assay [1], 4.43 in assay [2], 4.10 in assay [3] and 4.31 in assay [5]. The CI in assay [4] and in assay [6] was below 1 in each case.

For `CC[C@@H]1CN(C)[C@H]2Cc3c(n(Cc4cccc(OC)c4)c4ccccc34)C(=O)C[C@H]1C2C(=O)OC` (some centres undefined), the pIC50 in assay [1] is 4.38; in assay [2], 4.44; in assay [3] it was 4.05; in assay [5], 4.07. In assay [4], the CI is below 1.

On to `CC[C@@H]1CN(C)[C@H]2Cc3c(n(Cc4cccc(C)c4)c4ccccc34)C(=O)C[C@H]1C2C(=O)OC` (some centres undefined), for which the pIC50 is 4.38 in assay [1], 4.28 in assay [2], 4.03 in assay [3] and 4.09 in assay [5]. Further, the CI in assay [4] is below 1.

For `CCCn1c2c(c3ccccc31)C[C@H]1C(C(=O)OC)[C@H](CC2=O)[C@H](CC)CN1C` (some centres undefined), the pIC50 in assay [1] is 4.45; in assay [2] it was 4.31; in assay [3], below 4.00; in assay [5], below 4.00. The CI in assay [4] is below 1.

Take `CC[C@@H]1CN(C)[C@H]2Cc3c(n(CCc4cccc(OC)c4)c4ccccc34)C(=O)C[C@H]1C2C(=O)OC` (some centres undefined): the pIC50 in assay [1] is 4.39; in assay [2], 4.11; in assay [3], below 4.00; in assay [5], below 4.00. The CI in assay [4] is below 1.

`CCCn1c2c(c3ccccc31)C[C@H]1C(C(=O)OC)[C@H](CC2=O)[C@@H](CC)CN1C` (some centres undefined): the pIC50 was 4.35 in assay [1], 4.46 in assay [2], 4.60 in assay [3] and 4.39 in assay [5]. Moreover, the CI in assay [4] is below 1.

For `CC[C@H]1CN(C)[C@H]2Cc3c(n(Cc4ccc(OC)cc4)c4ccccc34)C(=O)C[C@H]1C2C(=O)OC` (some centres undefined), the pIC50 in assay [1] was 4.29; in assay [2], 4.45; in assay [3], 4.23; in assay [5], 4.22. In addition, the CI in assay [4] and in assay [6] was below 1 each time.

Take `CC[C@@H]1CN(C)[C@H]2Cc3c(n(Cc4ccccc4C)c4ccccc34)C(=O)C[C@H]1C2C(=O)OC` (some centres undefined): the pIC50 is 4.37 in assay [1], 4.21 in assay [2], below 4.00 in assay [3] and 4.01 in assay [5]. Also, in assay [4], the CI is below 1.

In the case of `CC[C@@H]1CN(C)[C@H]2Cc3c(n(Cc4cccc(Cl)c4)c4ccccc34)C(=O)C[C@H]1C2C(=O)OC` (some centres undefined), the pIC50 was 4.42 in assay [1], 4.42 in assay [2], below 4.00 in assay [3] and 4.13 in assay [5]. In addition, in assay [4], the CI is on record as below 1.

On to `CC[C@H]1CN(C)[C@H]2Cc3c(n(Cc4ccc(Cl)cc4)c4ccccc34)C(=O)C[C@H]1C2C(=O)OC` (some centres undefined), for which the pIC50 is 4.49 in assay [1], 4.62 in assay [2], 4.80 in assay [3] and 4.63 in assay [5]. Besides, in assay [4], the CI is below 1.

With `CC[C@H]1CN(C)[C@H]2Cc3c([nH]c4ccccc34)C(=O)C[C@H]1C2C(=O)OC` (some centres undefined), the pIC50 was 4.20 in assay [1], 4.04 in assay [2], 4.39 in assay [3] and 4.15 in assay [5].

Take `CC[C@@H]1CN(C)[C@H]2Cc3c(n(CC)c4ccccc34)C(=O)C[C@H]1C2C(=O)OC` (some centres undefined): the pIC50 in assay [1] is 4.16; in assay [2], 4.13; in assay [3], below 4.00; in assay [5], below 4.00.

In the case of `CC[C@@H]1CN(C)[C@H]2Cc3c([nH]c4ccccc34)C(=O)C[C@H]1C2C(=O)OC` (some centres undefined), the pIC50 in assay [1] is 4.25; in assay [2] it was 4.10; in assay [3], below 4.00; in assay [5], below 4.00.

On to `CC[C@@H]1CN(C)[C@H]2Cc3c(n(Cc4ccc(C(=O)c5ccccc5)cc4)c4ccccc34)C(=O)C[C@H]1C2C(=O)OC` (some centres undefined), for which the pIC50 in assay [1] is 4.05; in assay [2], below 4.00; in assay [3], below 4.00; in assay [5], below 4.00.

Turning to `CC[C@@H]1CN(C)[C@H]2Cc3c(n(Cc4ccc(OC)cc4)c4ccccc34)C(=O)C[C@H]1C2C(=O)OC` (some centres undefined), the pIC50 in assay [1] was 4.07; in assay [2] it was 4.10; in assay [3], 4.04; in assay [5], 4.11.

Consider `CC[C@@H]1CN(C)[C@H]2Cc3c(n(Cc4cccc([N+](=O)[O-])c4)c4ccccc34)C(=O)C[C@H]1C2C(=O)OC` (some centres undefined), for which the pIC50 in assay [1] is 4.20; in assay [2], 4.23; in assay [3], below 4.00; in assay [5] it was below 4.00. For the same molecule, the CI in assay [4] is recorded as below 1.

Consider `CC[C@@H]1CN(C)[C@H]2Cc3c(n(Cc4ccccn4)c4ccccc34)C(=O)C[C@H]1C2C(=O)OC` (some centres undefined), for which the pIC50 in assay [1] is 4.01; in assay [2], below 4.00; in assay [3], below 4.00; in assay [5], below 4.00.

Take `CC[C@@H]1CN(C)[C@H]2Cc3c(n(Cc4ccc(Cl)cc4)c4ccccc34)C(=O)C[C@H]1C2C(=O)OC` (some centres undefined): the pIC50 was 4.32 in assay [1], 4.36 in assay [2], 4.26 in assay [3] and 4.21 in assay [5]. The CI in assay [4] is below 1.

Regarding `CC[C@@H]1CN(C)[C@H]2Cc3c(n(CCc4cccc(Br)c4)c4ccccc34)C(=O)C[C@H]1C2C(=O)OC` (some centres undefined), the pIC50 is 4.40 in assay [1], 4.07 in assay [2], below 4.00 in assay [3] and 4.02 in assay [5]. Also, in assay [4], the CI is below 1.

Turning to `CC[C@@H]1CN(C)[C@H]2Cc3c(n(Cc4cc(OC)cc(OC)c4)c4ccccc34)C(=O)C[C@H]1C2C(=O)OC` (some centres undefined), the pIC50 in assay [1] was 4.56; in assay [2], 4.41; in assay [3] it was below 4.00; in assay [5], below 4.00. For the same molecule, in assay [4], the CI was below 1.

As for `CC[C@@H]1CN(C)[C@H]2Cc3c(n(Cc4ccc(Br)cc4)c4ccccc34)C(=O)C[C@H]1C2C(=O)OC` (some centres undefined), the pIC50 in assay [1] was 4.44; in assay [2], 4.35; in assay [3], 4.40; in assay [5], 4.34. Also, the CI in assay [4] was below 1.

Regarding `CC[C@@H]1CN(C)[C@H]2Cc3c(n(Cc4ccc(C)cc4)c4ccccc34)C(=O)C[C@H]1C2C(=O)OC` (some centres undefined), the pIC50 in assay [1] was 4.50; in assay [2], 4.43; in assay [3] it was 4.93; in assay [5], 4.28. The CI in assay [4] and in assay [6] was below 1 throughout.

Take `CC[C@@H]1CN(C)[C@H]2Cc3c(n(CCCO)c4ccccc34)C(=O)C[C@H]1C2C(=O)OC` (some centres undefined): the pIC50 in assay [1], in assay [2], in assay [3] and in assay [5] was below 4.00 throughout.
